Data set [1] has as its system sensitised amphetamine response (hyperactivity) in mice. Nature of the data set: Sensitised behavioural response to amphetamine in mice. It is filed as in vivo. The note with it: Mus musculus; amphetamine-pretreated mice; s.c. 30 min before D-amphetamine 1.25 mg/kg challenge; Std. Dev. in brackets; read-out: Inhibition of the sensitised amphetamine response, ED50. Here is the method: (§1) Subjects. Male NMRI mice (Charles River) weighing approx. 35 g are used. […] 12 mice are used pr experimental group.
Experimental procedure. […] For the 17 days between the last day of pre-treatment and the test day, the animals are kept in their homecage receiving the care as described above. The experiment is performed under normal light conditions in an undisturbed room. The mice are treated with test substance or vehicle and placed individually in the test cages for 30 min. […] 5×8 infrared light sources and photocells interspaced by 4 cm monitor the locomotor activity. The light beams cross the cage 1.8 cm above the bottom of the cage.
(§2) Administration of compounds.
Data analyses. The total counts obtained in the 30 min test are averaged pr animal group and used for calculation of drug effects in the following manner: The average motility induced by an amphetamine challenge in amphetamine-pretreated animals is used as the sensitised response. The average motility induced by a vehicle challenge to vehicle-pretreated animals is used as a baseline motility response. […] Similarly an ED50 for inhibiting baseline motility is calculated by expressed the motility response in vehicle-pretreated, vehicle-challenged, drug-treated animals relative to the baseline motility response. A therapeutic index value is subsequently calculated by dividing the first ED50 by the second.

For another data set, the system named is baseline motility. The data set is described as follows: Baseline motility in mice (vehicle-pretreated, vehicle-challenged). In kind it is in vivo, mouse. The note with it: s.c., Std. Dev. in brackets. On the procedure: as §1
Experimental procedure. All mice are pre-treated once daily for five days with either d-amphetamine sulphate (2.5 mg/kg s.c.) or saline (10 ml/kg). For the 17 days between the last day of pre-treatment and the test day, the animals are kept in their homecage receiving the care as described above. The experiment is performed under normal light conditions in an undisturbed room. The mice are treated with test substance or vehicle and placed individually in the test cages for 30 min. The mice are then challenged with D-amphetamine sulphate (1.25 mg/kg s.c.) or saline (5 ml/kg) and replaced in the test-cage and data acquisition is begun. 5×8 infrared light sources and photocells interspaced by 4 cm monitor the locomotor activity. The light beams cross the cage 1.8 cm above the bottom of the cage.
as §2
Data analyses. […] Similarly an ED50 for inhibiting baseline motility is calculated by expressed the motility response in vehicle-pretreated, vehicle-challenged, drug-treated animals relative to the baseline motility response. A therapeutic index value is subsequently calculated by dividing the first ED50 by the second.

Experimental findings from US20100256145A1, “USE OF KCNQ POTASSIUM CHANNEL OPENERS FOR REDUCING SYMPTOMS OF OR TREATING DISORDERS OR CONDITIONS WHEREIN THE DOPAMINERGIC SYSTEM IS DISRUPTED” (H. LUNDBECK A/S, priority 2007, published 2010) are described below.

Structures are written as SMILES.

Usually ED50 stands for the dose at which the effect has come halfway, by size or by number of responders. In the case of `Cc1nc(N2CCOCC2)nc(C)c1NC(=O)Cc1ccc(F)cc1` [N-(4,6-Dimethyl-2-morpholin-4-yl-pyrimidin-5-yl)-2-(4-fluoro-phenyl)-acetamide], in data set [1], the ED50 turned out to be 0.4 mg/kg. Turning to `CCOC(=O)Nc1ccc(NCc2c(C)cc(C)cc2C)cc1N` [[2-Amino-4-(2,4,6-trimethyl-benzylamino)-phenyl]-carbamic acid ethyl ester], in the data set on baseline motility, the “Inhibition of baseline motility, ED50” value was found to be 4.3 mg/kg.
